In general, melting point refers to the temperature, or range, at which the solid turns liquid.

The values that follow come from a melting point compilation (Tetko et al.; mined from patent text by program, amines drawn as free bases though some values may be those of a salt).

With `CCOC(=O)ON=C1Cc2ccccc2N(C(N)=O)c2ccccc21`, the melting point lay within 189 to 190 °C.

The compound `CONC(=O)NC1CCCc2ccccc21` (stereo not given) came in with a melting point of 122 to 125 °C.

Compound `CN1OCC(=O)N(c2ccc(Oc3ccccc3)cc2)C1=S` returned a melting point of 159 to 160 °C.

As to `CCC(C)c1nn(-c2ccc(C(F)(F)F)cn2)cc1CCCO` (stereo not given), the melting point was in the range of 72 to 73 °C.

Take `NN(c1ccccc1)c1cc(Cl)nc(Cl)n1`: the melting point was 114 to 116 °C.

`CNC(=O)c1cnc(N2CCOCC2)cc1-c1ccccc1C` had a melting point of 156 to 158 °C.

In turn, `CCOCc1nc2c(N)nc3cc(Br)ccc3c2n1CC1CCN(C(=O)N2CCOCC2)CC1` yielded a melting point of 198 to 199 °C.

In turn, `COc1cc(Cl)ccc1NC(=O)C1CCCn2c1nc(-c1ccncn1)cc2=O` (stereo not given) displayed a melting point of 251 to 253 °C.

Take `CCN(c1ccc2c(c1)OCO2)c1nc(=O)c2cccnc2s1`: the melting point is 184 to 185 °C.

`Cc1ccc2oc(Cc3nc4cc(C)ccc4o3)nc2c1`: the melting point stood at 91 °C.

Turning to `COc1ccc(-c2c3c(cc4ccc(O)cc24)-c2ccc(O)cc2CO3)cc1`, the melting point fell in the range of 200 to 203 °C.

As to `O=C(NCc1ccc(F)cc1-n1cncn1)c1nc2n(c(=O)c1O)CCN2CCO`, the melting point was 220 to 222 °C.

The compound `CCOC(=O)Nc1sc(-c2ccc([N+](=O)[O-])cc2)c(C)c1C(=O)OCC` displayed a melting point of 130 to 131 °C.

`Cc1cc(-c2cnc(N)c(C(=O)Nc3cccnc3)n2)ccc1F` came in with a melting point of 186 to 189 °C.

`COC(=O)c1nc(Cl)c(Cl)c(N)c1I`: the melting point was in the range of 122 to 123 °C.

Regarding `Nc1cc(C(F)(F)F)cnc1Cl`, the melting point lay in the range of 94 to 95 °C.

In turn, `O=C1Nc2cccnc2N(C(=O)CN2CCC(CCCN3CCCCC3)CC2)c2ccccc21` registered a melting point of 202 to 203 °C.

Consider `CC(C)(C)CC(C)(C)Nc1nc(NC(C)(C)CC(C)(C)C)nc(N2CC3CCC(CC3)C2)n1`, for which the melting point is 126 to 127 °C.

As to `COc1ccc2c(c1O)NC(O)C1CCCN1C2=O` (stereo not given), the melting point was in the range of 152 to 155 °C.

On to `CCn1c(=O)c2[nH]c(/C=C/c3cc(OC)c(OC)cc3Br)nc2n(CC)c1=O`, for which the melting point is > 285 °C.

`CC(C)(O)Cn1c(CO)nc2c(N)nc3cc(-c4cccc(C(=O)N5CCCC5)c4)cnc3c21` showed a melting point of 157 to 160 °C.

For `O=C1N(Cc2ccccn2)c2ccccc2C12COc1cc3c(cc12)OCCCO3` (stereo not given), the melting point was 122 to 123 °C.

The compound `CCCCNC(=O)Oc1ccc(Oc2ccc([N+](=O)[O-])cc2)cc1` had a melting point of 122 to 124 °C.

In turn, `OCc1cn(-c2cc(F)cc(Br)c2)cn1` gave a melting point of 134 to 138 °C.

Regarding `CN1CC(N2CC(=O)NC2=O)CC2c3cccc4[nH]cc(c34)CC21` (stereo not given), the melting point is 295 to 297 °C.

The compound `O=C(NS(=O)(=O)c1ccc(O)cc1)c1ccc(Cl)cc1Cl` yielded a melting point of 155 to 157 °C.

Compound `CCN(CC)CCNc1ccc(NCCN(CC)CC)c2c1C(=O)c1ccccc1C2=O` displayed a melting point of 109 °C.

Compound `CCOC(=O)C1=C(C)NC(C)=C(C(=O)OCCN2C(=O)c3ccccc3C2=O)C1c1cccc([N+](=O)[O-])c1` (stereo not given) returned a melting point of 194 to 195 °C.

`OC/C=C/c1ccc(C(F)(F)F)cc1`: the melting point is 53 to 55 °C.

In turn, `COc1cccc(C23CCCC(C2)NC3=O)c1` (stereo not given) displayed a melting point of 109 to 111 °C.

The compound `CCNC(=S)Nc1cc(Cl)ccc1C` returned a melting point of 120 to 122 °C.

Regarding `COC(=O)CCc1ccc(C(=O)Cc2ccccc2)cc1`, the melting point is 77 to 78 °C.

Turning to `CCC(=O)NCCCSc1ccc(Cl)cc1`, the melting point was 69 to 70 °C.

For the compound `CCOC(=O)COc1cccc2c1CCCC2=O`, the melting point lay in the range of 58 to 60 °C.

`N#CCCNC(=O)c1cccc(-c2cccc(Oc3ccc(Cl)cc3)n2)c1` registered a melting point of 143 to 144 °C.

Regarding `N#CCCCCn1c(=O)sc2c(=O)[nH]c(N)nc21`, the melting point lay in the range of 240 to 243 °C.

Regarding `O=C(CS(=O)(=O)c1ccccc1)OC1CCCCC1`, the melting point lay within 35 to 38 °C.

Consider `CCOC(=O)[C@H](Cc1ccc(O)cc1)NC(=O)c1c(Cl)cccc1Cl`, for which the melting point was in the range of 141 to 142 °C.

Compound `COc1ccc(C(=O)Nc2cc(-c3c(-c4cccc(C)c4)nc4ccc(N(C)C)nn34)ccn2)cc1` yielded a melting point of 193 to 194 °C.

Compound `COc1cc(Nc2c(C#N)cnc3cc(-c4cccc(CN5CCOCC5)c4)ccc23)c(Cl)cc1Cl` showed a melting point of 88 to 91 °C.

`CN(Cc1ccc(NC(=O)c2coc3c2C(=O)CCC3)cc1)C(=O)OC(C)(C)C` registered a melting point of 150 °C.

Consider `COc1ccc2c(c1)oc(=O)c1c3ccc(OC)cc3sc21`, for which the melting point was in the range of 220 to 221 °C.

As for `CSc1cnn(C(C)(C)C)c(=O)c1C`, the melting point is 115 to 116 °C.

The compound `O=[N+]([O-])c1ccc(Oc2ccc(C(F)(F)F)cc2Cl)nc1` gave a melting point of 69 to 72 °C.

`COc1ccc(-c2c(C#N)ccnc2SC)cc1` gave a melting point of 80 to 81 °C.

`CCCc1[nH]c2cc(C(=O)OC)ccc2c1C(=O)COC` yielded a melting point of 127 to 129 °C.

Compound `COc1ccc(C2=NN(C3CCN(C(=O)CCSCCNC(=O)OC(C)(C)C)CC3)C(=O)[C@@H]3CC=CC[C@H]23)cc1OC` had a melting point of 132 to 134 °C.

Compound `COc1ncc(-c2cc(N3CCOCC3)nc(-n3c(C(F)F)nc4c(OC)cccc43)n2)cn1` showed a melting point of 238 to 241 °C.

`CCc1cc(N(C=O)c2ccccc2)cc(CC)c1N=C=S` displayed a melting point of 77 to 78 °C.

`O=C1CCC(N2Cc3c(OCc4ccc(CN5CCC(c6ccncc6)CC5)cc4)cccc3C2=O)C(=O)N1` (stereo not given) had a melting point of 198 to 200 °C.

With `CC(C)(CCC#N)c1ccc(C(=O)Nc2cn3cc(C(F)(F)F)ccc3n2)cc1`, the melting point was 233 to 234 °C.

Consider `CCCc1nc2cnc3cccnc3c2n1CC1(O)CCOC1` (stereo not given), for which the melting point is 151 to 152 °C.

In the case of `CCCCCCCCOCC(CO)(CO)COCCCCCCCC`, the melting point lay within 30 to 32 °C.

Compound `CCCc1c(C(=O)CC(C)OC)c2ccc(C(N)=O)cc2n1Cc1ccccc1Cl` (stereo not given) returned a melting point of 155 to 157 °C.

In the case of `CCC(=O)OC1c2ccccc2C(=O)N1c1ccc2ccc(Cl)nc2n1` (stereo not given), the melting point worked out at 160 °C.

The compound `CC(=O)c1cccc(N=P(c2ccccc2)(c2ccccc2)c2ccccc2)c1` displayed a melting point of 135 to 136 °C.

Take `COc1ccc([N+](=O)[O-])c(OCC(N)=O)c1`: the melting point was 185 to 187 °C.

`c1cc2c(Nc3ccc4[nH]ncc4c3)ncnc2cn1` showed a melting point of 258 °C.

With `Cc1nc(C)c2c(n1)CN=C(c1ccccc1)c1cc(Cl)ccc1-2`, the melting point is 121 to 124 °C.

For the compound `COc1ccc(C(O)c2ccc(C(=O)N(C3CCCC3)C3CCCC3)cc2)cc1OC` (stereo not given), the melting point was in the range of 137 to 138 °C.

Compound `CC(=O)OC1C(N2CCCCC2)CC2C3CCC4CCC(O)CC4(C)C3CCC21C` (stereo not given) came in with a melting point of 239 to 240 °C.

`O=C(Nc1ccc(OCCN2CCOCC2)c2ccccc12)c1cc(F)cc(OC2CCOCC2)c1`: the melting point fell in the range of 75 to 77 °C.

In turn, `CCOC(=O)c1c(COC(C)=O)[nH]c(=O)n1C(C)=O` displayed a melting point of 138 to 139 °C.

`ClCc1c(-c2ccccc2)c(-c2ccccc2)nn1-c1ccccc1` came in with a melting point of 122 °C.

The compound `CCOC(=O)Cc1ccc2c(c1)sc1ccccc12` came in with a melting point of 60 to 62 °C.

Compound `CCOCn1c(C(=O)c2cc(C)cc(C)c2)c(CC)c(=O)[nH]c1=O` registered a melting point of 184 °C.

The compound `CNc1nc(Cl)cc(Cl)n1` displayed a melting point of 157 to 158 °C.

Compound `CC1(c2ccc(OCc3ccccc3)c(C3CO3)c2)OCCO1` (stereo not given) registered a melting point of 121 to 123 °C.

As for `CC(=O)N[C@@H](CCC(=O)O)C(N)=O`, the melting point fell in the range of 85 to 87 °C.

Compound `O=[N+]([O-])c1cnn(-c2c(Cl)cc(C(F)(F)F)cc2Cl)c1` showed a melting point of 91 to 97 °C.

With `CC(C)(C)OC(=O)N1CC[C@H](O)[C@H](F)C1` (relative stereo), the melting point is 48 °C.

Compound `CCOC(=O)c1cc2ccc(OC)cc2n1CCNC(C)=O` registered a melting point of 159 to 160 °C.

Turning to `COc1ccc(CCn2cnc3oc(C)c(C)c3c2=N)cc1`, the melting point was 125 °C.

As for `CCO/N=C1\CCc2ccccc2C1=Cc1ccc(S(C)(=O)=O)cc1`, the melting point was in the range of 151 to 152 °C.

Turning to `Cc1nc2cccc(CNC(=O)OC(C)(C)C)c2c(=O)n1C1CCC(=O)NC1=O` (stereo not given), the melting point was in the range of 206 to 208 °C.

Consider `Cc1nc(NC(=O)c2cnn3c(C(F)F)cc(-c4ccc(C(F)(F)F)cc4)nc23)sc1S(=O)(=O)NCCO`, for which the melting point is 134 °C.

Turning to `CCOC(=O)N1CCN(c2ccc(-n3cn[nH]c3=O)cn2)CC1`, the melting point is 221 °C.

Turning to `CC(=O)N1CCCCNC1=NC(c1ccccc1)c1ccccc1`, the melting point fell in the range of 250 to 252 °C.

Compound `CCOC(=O)c1nc[nH]c1F` came in with a melting point of 153 to 154 °C.

For the compound `CCC(COS(C)(=O)=O)Nc1ccc(Cl)cc1[N+](=O)[O-]` (stereo not given), the melting point lay in the range of 91 to 93 °C.

Regarding `N#Cc1c(N2CCCN(c3ccc(F)c(F)c3)CC2)cc[nH]c1=S`, the melting point is 250 to 251 °C.

As to `CC(=O)Nc1ccc(C)c(NCCS(=O)(=O)F)c1`, the melting point lay within 154 to 155 °C.

`COc1ccc(Cn2cnc(C(=N)C#N)c2N)cc1`: the melting point fell in the range of 92 to 94 °C.

`O=C1NC=N[C@H]2CCCC[C@@H]12` (relative stereo): the melting point lay in the range of 133 to 134 °C.

`CS(=O)(=O)OCc1cc(-c2ccc3c(c2)CCO3)nn(CC=Cc2ccc(Cl)cc2)c1=O` returned a melting point of 135 to 140 °C.

With `O=c1cc(-c2ccccc2Cl)[nH]c(=O)n1-c1ccc(C(F)(F)F)cn1`, the melting point is 281 to 283 °C.

`CCC1CC(=O)C2Oc3c(OC)ccc4c3C23CCN(C#N)C(C4)C13` (stereo not given): the melting point fell in the range of 212 to 217 °C.

Consider `O=C1CC(c2cccc(-n3ccnc3)c2)=Nc2cc(O)c(-c3ccc(F)cc3)cc2N1`, for which the melting point was 250 °C.

In turn, `CC(C)Oc1ccc(-n2c(C(=O)O)c(C(=O)O)c3cc(Oc4cccc(Cl)c4)ccc32)cc1` registered a melting point of 182 to 190 °C.

As to `Clc1ccc(-c2nc(Cl)c3c(n2)CCCC3)cc1`, the melting point stood at 121 °C.
